According to PMC7754465, “Multiparameter Kinetic Analysis for Covalent Fragment Optimization by Using Quantitative Irreversible Tethering (qIT)” (Chembiochem, 2020):

Experiments:
[1] = target: T1, Cdk2(ES) = Cdk2(F80C,C177A) (Homo sapiens, UniProt P24941, C177A/F80C); test: quantitative irreversible tethering (qIT): rate of cysteine modification of Cdk2(ES); assay type: binding; details: for kinact/KI at 500 µM: Cdk2(ES) 5 μM, read-out: Cdk2(ES): kobs/[I]; for covalent SAR by REF-based qIT analysis: compared with acrylamide 1 or parent analogue
T1 construct: GST (N, cleaved yes); made in house; host or cells: E. coli Tuner(DE3)
Method: (§1) Figure 2 Comparison of previous and current applications of Quantitative irreversible tethering (qIT). a) Overview of rate determination. A cysteine‐containing biomolecule is treated with covalent fragments under pseudo‐first‐order conditions. Reaction progress is followed by discrete measurement of free cysteine concentration by using the fluorogenic probe CPM, and rate constants (k obs) are derived from exponential regression analysis. b) Comparison of the reactivity profile of each fragment with the POI and GSH typically classes them as unreactive, reactive but non‐selective or reactive and selective. c) Quantification of kinetic POI/GSH selectivity facilitates hit identification. d) The observed rate of reaction between the POI and hit fragment is determined at a range of ligand concentrations by using qIT. Subsequent hyperbolic regression analysis is used to derive K i and k inact to facilitate comprehensive covSAR analysis.
Therefore, we set out to develop novel classes of electrophile sensitive kinase inhibitors using a covalent fragment approach. Accordingly, we screened a 138‐member library of diverse cysteine‐reactive fragments at 500 μM against Cdk2(ES) and GSH by using the qIT platform and monitored the kinetics of cysteine‐modification over 24 hours. […] Using three standard deviations over the geometric mean REF as the statistical cut‐off for defining hit fragments (REF >27.9) yielded two acrylamide fragments, tetrahydroquinoline 1 (REF=81) and pyrimidine S1 (REF=64) for further investigation (Figures 3c and S2). […]
D. Rate determination by qIT
Reaction-plate setup: Each well of a 96-well PCR plate was charged with 60–100 µL of target thiol (GSH or protein, 10 µM) and 4% w/v TCEP-agarose beads in 100 mM phosphate buffer (pH 7.5 or 8) and cooled to 4 °C. Reactions were started by addition of an equal volume of pre-cooled electrophile solution (1 mM, 2% DMSO) in 0.1 M phosphate buffer (final concentra-tion: thiol = 5 µM, electrophile = 0.5 mM, 2% w/v TCEP-agarose beads), with a minimum of 4 wells per plate used as DMSO/thiol only controls. After mixing, TCEP-agarose was pelleted by centrifugation (1,300 rpm, 1 min) and the plate incu-bated at 4 °C. CPM Quench: At a series of time points (typically around 0.25, 0.5, 1, 2, 6, 24, 48, 72 and 120 hours after reac-tion initiation), 3 µL aliquots of each reaction were quenched into a 384-well fluorescence plate (Corning – black, NBS) where each well was charged with 27 µL of CPM solution (1.39 µM) in 100 mM phosphate buffer (pH 7.5) (final concentration: thiol = 0.5 µM, CPM = 1.25 µM). Quenching was typically performed in duplicate and fluorescence plates were incubated at room temperature for 60 minutes before fluorescence intensity (excitation/emission: 384/470 nm) was measured on an EnVisionTM plate reader. Analysis: All analysis was performed using Prism 8.0 software (GraphPad). For each time point, the fluorescence of each reaction was normalized relative Cdk2(ES)/GSH only control = maximum signal, DMSO only = minimum signal. The normalized fluorescence for each reaction was plotted against time. A one phase exponential decay was fitted to each plot (Constraints: Y(0) > 0.8; 0 < plateau = 0), yielding a pseudo first-order rate constant.
Cdk2 mutations were introduced by PCR and cloned into pGEX6P1 Cdk2 (552), a gift from Jonathon Pines (Addgene plasmid # 61845) used to express GST-Cdk2(WT). GST-Cdk2(ES) = GST-Cdk2(F80C,C177A). All constructs were verified by se-quencing. pGEX6P1 cyclin A2 (amino acids 173-432) was generated by PCR and restriction digestion. GST-CAK1 was con-structed by PCR amplification of S.cerevisiae genomic DNA and the product cloned into pKEG-KG. All protein expression was performed using an adapted autoinduction protocol:[8] Plasmids were transformed into E. coli Tuner(DE3) and cultures grown in autoinduction media at 37 °C until OD600 = 0.9. The cultures were then incubated at 18 °C for a further 40 hours before […]

[2] = qIT: rate of reaction with glutathione (intrinsic reactivity); assay type: physicochemical; details: fragment 0.5 mM, glutathione 5 μM
Method: Previously we described a fluorescence‐based platform for screening cysteine‐targeting covalent fragments called quantitative irreversible tethering (qIT). ^[19] The method measures and compares the rate of reactions of individual fragments with the protein‐of‐interest (POI) and GSH (Figure 2a and b).
as §1, with “covSAR analysis. […]” for “covSAR analysis.”

Cdk2(ES) = target: T2, Cdk2(ES) (Homo sapiens, UniProt P24941, C177A/F80C); test: concentration-dependent qIT with hyperbolic regression (Ki, kinact); assay type: binding; details: for kinact/KI / Ki / kinact: acrylamide 25-500 μM, Cdk2(ES) 5 μM; for Ki / kinact: hyperbolic fit of kobs
T2 construct: GST (N, cleaved yes); made in house; host or cells: E. coli Tuner(DE3)
Method: Next we sought to carry out comprehensive kinetic analysis of the covalent binding to better understand the covSAR trends. Accordingly, the concentration dependency for the rate of reaction between Cdk2(ES) and key acrylamides 1, 6, 9 and 11 were determined using qIT (Figure 7c). To maintain pseudo‐first‐order reaction kinetics and stay within the solubility limits of the fragments, ligands were titrated from 25 to 500 μM. […] Indeed, comparing the binding conformations of the merged (9 and 11) and parent (1 and 6) fragments, we observe a subtle shift in the position of the core scaffolds and the orientation of the acrylamide link that likely explains the jump in potency that resulted from fragment merging. Overall, comparing acrylamides 9 and 11, we observe in a 3.7‐fold increase in k inact/K i and a 4.3‐fold increase in REF, and the consistency between these two orthogonal metrics of covalent fragment potency is encouraging for future applications of qIT to covalent fragment optimization.
H. Intact-protein mass spectrometry
Protein-mass data were obtained on a Waters micromass LC-TOF mass spectrometer in positive ion mode using electrospray ionization. Samples were chromatographed using an Acquity UPLC protein BEH C4 column (2.1 mm × 50 mm, 2.7 µm) with a flow rate of 30 µL/min. The injection volume was 5 µL of protein solution (5 µM) in 30 mM ammonium bicarbonate buffer con-taining 0.5% formic acid and 20% MeOH. The gradient used was 100% mobile phase A (0.1% formic acid in water/MeOH (19:1)) ramping linearly to 90% mobile phase B (0.1% formic acid in MeOH) over 5 minutes. The spectra were acquired from 500 to 2500 Da and deconvolution was performed with MassLynx (Waters), using the maximum entropy algorithm, over a mass range of […] with a mass step of 0.75. […]
Cdk2(WT) or Cdk2(ES) (1 mg) was sequentially incubated with aliquots of CAK1 (3 × 0.05 mg) at r.t. for 4 hours at a time in 1.5 mL of a 30 mM Tris/HCl buffer (pH 7.5) containing 10 mM MgCl2, 10 mM ATP and 3 mM DTT. As CAK1 appeared to be-come rapidly inactivated in the presence of pCdk2, three repetitions were required to drive the reaction to completion. The resulting solution was incubated with 50 µL of glutathione-Sepharose beads and filtered to remove remaining CAK1.
Kinase assays were performed by coupling the conversion of ATP into ADP to the oxidation of NADH (Abs = 340 nm) into NAD+, mediated by lactate dehydrogenase (LDH) and pyruvate kinase (PK). WT, mutant or ligand-conjugated pCdk2 (12.5 or 50 nM) was preincubated with Cyclin A2 (20 nM) in a buffer containing 50 mM Tris/HCl, 10 mM MgCl2, 5 mM DTT, 1 mM phosphoenolpyruvate, 0.24 mM NADH, 10 U mL-1 LDH, 14 U mL-1 PK and 5% DMSO at 37 °C for 30 minutes. Reactions were initiated by addition of 0.5 mM ATP and 0.24 mM substrate peptide (PKTPKKAKKL) and the absorbance at 340 nm was moni-tored for two hours. Assays were conducted at 37 °C and carried out in clear 384-well plates (Nunc) using a SpectraMax i3x plate reader (Molecular Devices) with a final volume of 20 µL in each well. After plotting Abs 340 against time, enzyme velocity was measured from the gradient during the linear phase of product accumulation.
Q. Concentration dependent qIT
The rate of reaction (kobs) for the reaction between each acrylamide (25, 50, 125, 250 and 500 µM) with Cdk2(ES) (5 µM) was determined us qIT (see D. Rate Determination by qIT) in duplicate. The average kobs was plotted against acrylamide concen-tration and hyperbolic regression analysis performed using Prism 8.0 software (GraphPad) to derive kinact and Ki.

[3] = acrylamide 11 compared with acrylamide 9

SMILES | kinact/KI at 500 µM ([1]; fragment 0.5 mM) | covalent SAR by REF-based qIT analysis [1] | further results
C=CC(=O)N1CCn2c1nc1ccccc12 [compound 2] | 0.68 M⁻¹ s⁻¹ |  | GSH: kobs/[I] [2]: 5.34 M⁻¹ s⁻¹
C#CCNC(=O)c1ccc2c(c1)CCCN2C(=O)C=C [compound 5] |  | well tolerated | 
C=CC(=O)N1CCN(C(C)=O)c2ccccc21 [compound 7] |  | loss of activity | 
C=CC(=O)N1CCN(CC2CC2)c2cc(C(=O)OC)ccc21 [compound 11] | 19.5 M⁻¹ s⁻¹ | significant improvement in REF | fold increase in REF [1, 3]: 4.3 fold; fold increase in kinact/Ki (Cdk2(ES); [3]): 3.7 fold; kinact/KI (Cdk2(ES)): 17.7 M⁻¹ s⁻¹; Ki (Cdk2(ES)): 102 µM; kinact (Cdk2(ES)): 0.00181 s⁻¹

Second part, led by results:

kinact/KI at 500 µM ([1]; fragment 0.5 mM) | covalent SAR by REF-based qIT analysis [1] | SMILES | further results
 | complete loss of activity | C=CC(=O)N1CCCc2cc(C(=O)O)ccc21 [compound 3] | 
 | complete loss of activity | C=CC(=O)N1CCCc2cc(C(N)=O)ccc21 [compound 4] | 
 | tenfold loss in REF | C=CC(=O)N1CCc2cc(C(=O)OC)ccc21 [compound 8] | 
8.48 M⁻¹ s⁻¹ |  | C=CC(=O)N1CCN(CC)c2cc(C(=O)OC)ccc21 [compound 9] | rate of reaction with Cdk2(ES) relative to acrylamide 1 ([1]; qIT): six times faster than acrylamide 1; rate enhancement factor (REF) ([1]; rate with Cdk2(ES) relative to rate with GSH, fragment 0.5 mM, thiol 5 μM): 182; kinact/KI (Cdk2(ES)): 4.76 M⁻¹ s⁻¹; Ki (Cdk2(ES)): 416 µM; kinact (Cdk2(ES)): 0.00198 s⁻¹
1.91 M⁻¹ s⁻¹ | less Cdk2(ES) selective | C=CC(=O)N1CCN(C)c2cc(C(=O)OC)ccc21 [compound 10] | 
